Results from patent US20200114012A1, “METHOD FOR PRODUCING A LIQUID COMPOSITION” (The University of Liverpool, priority 2017, published 2020).

Assays:
[1] = Precipitation of TDF particulates with stabiliser combinations (Example 5); format: physicochemical; settings: Stabiliser B combined with Stabiliser A AOT, procedure of Example 2
Protocol: 800 μL of the stabiliser-containing dichloromethane solution was pipetted into a 4 mL volume glass vial. 200 μL of TDF-containing methanol solution was rapidly pipetted into the same vial, which was then sealed and briefly shaken. A white, hazy suspension formed instantaneously. […] The TDF loading of the particulates was altered by changing the concentration of the methanol and dichloromethane solutions prior to mixing. It should be noted that this approach allows for different volumes of the TDF particulate suspensions to be produced simply by increasing the volumes added, so long as the 4:1 ratio of dichloromethane to methanol is maintained, this allows for fine control of the concentration of the TDF particles dispersed in the oil of the liquid composition.
Following the procedure described in Example 2, the following combinations of stabilisers were used to form TDF particulates (see table 7 below).

[2] = Solubility of TDF in solvents and of TDF particulates in oils; format: physicochemical
Text: Therefore methanol was used for the first solvent. TDF is not soluble in dichloromethane, which was used as the second solvent.
A selection of biocompatible natural oils were used to form liquid compositions. These oils were selected as the TDF particulates were insoluble in them and the oils could be dissolved into the mixed solvent system. The oils used were peanut oil, soy bean oil, sesame oil and safflower oil.

Compound	Successful Precipitation [1]	solubility in dichloromethane ([2]; dichloromethane)	solubility ([2]; methanol, organic solvent or mixture) [mg/mL]
CCCCC/C=C\C/C=C\CCCCCCCC(=O)OCC(O)CO (stereo not drawn) [Maisine ™ 35-1, glyceryl monolinoleate]	Yes		
CCCCCCCC/C=C\CCCCCCCC(=O)OCC(O)CO (stereo not drawn) [Pecol ™, glycerol mono-oleate]	Yes		
CC(C)OC(=O)OCOP(=O)(CO[C@H](C)Cn1cnc2c(N)ncnc21)OCOC(=O)OC(C)C.O=C(O)/C=C/C(=O)O [TDF, tenofovir disoproxil fumerate]		not soluble	≤ 80
polyethylene glycol sorbitan monooleate [Tween ™ 80]	Yes		
polyglyceryl-3 diisostearate [Plurol ™ diisosteraque]	Yes		
polyglyceryl-6 dioleate [Plurol ™ Olique]	Yes		
polyoxyethylene (2) stearyl ether [Brij ™ S2]	Yes		
polyoxyethylenesorbitan monopalmitate [Tween ™ 40]	Yes		
propylene glycol monocaprylate (type I) [Capryol ™ PGMC]	Yes		
propylene glycol monocaprylate (type II) [Capryol ™ 90]	Yes		
propylene glycol monolaurate (type I) [Lauroglycol ™ FCC]	Yes		
propylene glycol monolaurate (type II) [Lauroglycol ™ 90]	Yes		
propylene glycol monopalmitostearate [Monosteol ™]	Yes		
sorbitan oleate [Span ™ 80]	Yes		
